Laboratory results as given in US20220085295A1, “Novel Compound and Organic Light Emitting Device Comprising the Same” (LG Chem, Ltd., priority 2019, published 2022).

Test: Solubility experiment in toluene
Type: physicochemical
Settings: in toluene at room temperature/normal pressure

| Solubility (wt %) | Compound |
| --- | --- |
| 4.5 wt % | CC(C)(C)c1ccc(N(c2ccc(C(C)(C)C)cc2)c2ccc(C3(c4ccc(C(C)(C)C)cc4)c4cc(N(c5ccccc5)c5ccc(C(C)(C)C)cc5)ccc4-c4c3cc(N(c3ccccc3)c3ccc(C(C)(C)C)cc3)c3oc5ccccc5c43)cc2)cc1 (stereo not shown) [Compound 1] |
| 4.7 wt % | CC(C)(C)c1ccc(N(c2ccc(C(C)(C)C)cc2)c2ccc(C3(c4ccc(C(C)(C)C)cc4)c4cc(N(c5ccc(C(C)(C)C)cc5)c5cccc6c5oc5ccccc56)ccc4-c4c3cc(N(c3ccc(C(C)(C)C)cc3)c3cccc5c3oc3ccccc35)c3oc5ccccc5c43)cc2)cc1 (stereo not shown) [Compound 2] |
| 5.8 wt % | CC(C)(C)c1ccc(N(c2ccc(C(C)(C)C)cc2)c2ccc(C3(c4ccc(C(C)(C)C)cc4)c4cc(N(c5ccccc5)c5ccc(C(C)(C)C)cc5)ccc4-c4c3cc(N(c3ccccc3)c3ccc(C(C)(C)C)cc3)c3c4-c4ccccc4C3(C)C)cc2)cc1 (stereo not shown) [Compound 3] |
| 5.5 wt % | CC(C)(C)c1ccc(N(c2ccc(C(C)(C)C)cc2)c2ccc(C3(c4ccc(C(C)(C)C)cc4)c4cc(N(c5ccc(C(C)(C)C)cc5)c5cccc6c5oc5ccccc56)ccc4-c4c3cc(N(c3ccc(C(C)(C)C)cc3)c3cccc5c3oc3ccccc35)c3c4-c4ccccc4C3(C)C)cc2)cc1 (stereo not shown) [Compound 4] |
| 3.9 wt % | CC(C)(C)c1ccc(N(c2ccc(C(C)(C)C)cc2)c2ccc(C3(c4ccc(C(C)(C)C)cc4)c4cc(N(c5ccccc5)c5ccc(C(C)(C)C)cc5)c5c(oc6ccccc65)c4-c4c3cc(N(c3ccccc3)c3ccc(C(C)(C)C)cc3)c3oc5ccccc5c43)cc2)cc1 (stereo not shown) [Compound 5] |
| 4.1 wt % | CC(C)(C)c1ccc(N(c2ccc(C(C)(C)C)cc2)c2ccc(C3(c4ccc(C(C)(C)C)cc4)c4cc(N(c5ccc(C(C)(C)C)cc5)c5cccc6c5oc5ccccc56)c5c(oc6ccccc65)c4-c4c3cc(N(c3ccc(C(C)(C)C)cc3)c3cccc5c3oc3ccccc35)c3oc5ccccc5c43)cc2)cc1 (stereo not shown) [Compound 6] |
| 3.8 wt % | CC(C)(C)c1ccc(Oc2ccc(C3(c4ccc(C(C)(C)C)cc4)c4cc(N(c5ccccc5)c5ccc(C(C)(C)C)cc5)c5c(oc6ccccc65)c4-c4c3cc(N(c3ccccc3)c3ccc(C(C)(C)C)cc3)c3oc5ccccc5c43)cc2)cc1 (stereo not shown) [Compound 7] |
| 3.9 wt % | CC(C)(C)c1ccc(Sc2ccc(C3(c4ccc(C(C)(C)C)cc4)c4cc(N(c5ccccc5)c5ccc(C(C)(C)C)cc5)c5c(oc6ccccc65)c4-c4c3cc(N(c3ccccc3)c3ccc(C(C)(C)C)cc3)c3oc5ccccc5c43)cc2)cc1 (stereo not shown) [Compound 8] |
| 3.4 wt % | Cc1ccc(C)c(C2(c3ccc([Si](C)(C)C)cc3)c3cc(N(c4ccccc4)c4ccc(C(C)(C)C)cc4)c4c(oc5ccccc54)c3-c3c2cc(N(c2ccccc2)c2ccc(C(C)(C)C)cc2)c2oc4ccccc4c32)c1 (stereo not shown) [Compound 9] |
| 2.0 wt % | CC(C)(C)c1ccc(N(c2ccccc2)c2ccc3c(c2)C2(c4ccccc4-c4ccccc42)c2cc(N(c4ccccc4)c4ccc(C(C)(C)C)cc4)c4c(oc5ccccc54)c2-3)cc1 [Compound BD, reference compound] |
